Results on 1 compound are retold here after patent US20250051300A1, “GRAM-NEGATIVE SPECIFIC ANTIBIOTICS SPARING EFFECT ON GUT MICROBIOME” (THE BOARD OF TRUSTEES OF THE UNIVERSITY OF ILLINOIS, priority 2021, published 2025).

The test system of one assay is Bacillus subtilis. The experiment in a line: MIC, micro-dilution broth method (CLSI). Type of assay: cell-based. To be noted: Bacillus subtilis PY79. The text has this:
(§1) Antimicrobial susceptibility assays.
(Dilution methods test growth across graded concentrations, often in twofold steps.)

For another assay, the system named is Listeria monocytogenes. The experiment in a line: MIC, micro-dilution broth method (CLSI). Type of assay: cell-based. To be noted: ATCC19115; Listeria monocytogenes ATCC 19115.
Text: as §1

In assay [1] the test system is Staphylococcus epidermidis. The experiment in a line: MIC, micro-dilution broth method (CLSI). The assay is classed as cell-based. To be noted: Staphylococcus epidermidis NRS101.
Text: as §1

Another assay deals with Streptococcus pyogenes. The experiment in a line: MIC, micro-dilution broth method (CLSI). Type of assay: cell-based. To be noted: Streptococcus pyogenes Strain 1055.
Text: as §1

For another assay, the system named is Acinetobacter baumannii. The experiment in a line: MIC, micro-dilution broth method (CLSI). The assay is classed as cell-based.
Text: as §1

The next assay concerns Bacillus cereus. The experiment in a line: MIC, micro-dilution broth method (CLSI). Type of assay: cell-based. To be noted: ATCC11778; Bacillus cereus ATCC 11778.
Text: as §1

For the next assay, the system named is Pseudomonas aeruginosa. The experiment in a line: MIC, micro-dilution broth method (CLSI). The assay is classed as cell-based.
Text: as §1

The subject of another assay is Enterococcus faecium. The experiment in a line: MIC, micro-dilution broth method (CLSI). Type of assay: cell-based. To be noted: ATCC19434; Enterococcus faecium ATCC 19434.
Text: as §1

A further assay concerns Streptococcus pneumoniae. The experiment in a line: MIC, micro-dilution broth method (CLSI). To be noted: Streptococcus pneumoniae Strain 1003. The assay is classed as cell-based.
Text: as §1

Another assay relates to Staphylococcus aureus. The experiment in a line: MIC, micro-dilution broth method (CLSI). To be noted: ATCC29213; Staphylococcus aureus ATCC 29213. The assay is classed as cell-based.
Text: as §1

The test system of another assay is Streptococcus salivarius. The experiment in a line: MIC, gut commensal bacteria, micro-dilution broth.
A further assay relates to Bacteroides vulgatus. The experiment in a line: MIC, gut commensal bacteria, micro-dilution broth.
Another assay concerns E. cloacae AR0163. The experiment in a line: Bacterial sepsis survival model. Type of assay: in vivo, CD-1 mice. To be noted: colistin-resistant E. cloacae, 100 mg/kg IP twice daily for 3 days (FIG. 7F).
A further assay deals with K. pneumoniae AR0040. The experiment in a line: Acute pneumonia bacterial burden model. Type of assay: in vivo, CD-1 mice. To be noted: colistin-resistant K. pneumoniae, 100 mg/kg IP (FIG. 7C).

In brackets after ≈: the same amount, converted by molar mass. Like-named read-outs stand apart in the source and are kept apart here.

Regarding `Cc1cc(-c2c[nH]nc2-c2cccc(OCc3cccc(C#N)c3)c2)cc(C)n1` [Compound 12, 3-((3-(4-(2,6-dimethylpyridin-4-yl)-1H-pyrazol-3-yl)phenoxy)methyl)benzonitrile], the MIC (in general, the lowest concentration that inhibits growth of the organism) against Bacillus subtilis is over 128 µg/mL; against Listeria monocytogenes, over 128 µg/mL; in [1] it was over 128 µg/mL; with Streptococcus pyogenes, over 128 µg/mL; against Acinetobacter baumannii (ATCC19606, Acinetobacter baumannii ATCC 19606) it was over 128 µg/mL; with Acinetobacter baumannii (ATCC19606, Acinetobacter baumannii ATCC 19606 Δ3), 32 µg/mL (≈ 84.1 µM). For the same compound, the minimum inhibitory concentration (MIC) with Bacillus cereus is over 128 µg/mL; in the assay with Pseudomonas aeruginosa (Pseudomonas aeruginosa PAO1, read-out: MIC) it was over 128 µg/mL; with Pseudomonas aeruginosa (Pseudomonas aeruginosa PAO1 Δ6) it was over 128 µg/mL; with Enterococcus faecium, over 128 µg/mL; against Streptococcus pneumoniae it was over 128 µg/mL; against Staphylococcus aureus it was over 128 µg/mL. The MIC in the assay on Streptococcus salivarius (Streptococcus salivarius) is over 128 µg/mL; with Streptococcus salivarius (Streptococcus salivarius KLE 2370, BHI-ych, listed as Lolamycin), over 128 µg/mL; with Bacteroides vulgatus (Bacteroides vulgatus KLE 2303, BHI-ych, listed as Lolamycin) it was over 128 µg/mL; in the assay with Bacteroides vulgatus (Phocaeicola vulgatus), over 128 µg/mL. Moreover, the “efficacy, survival” value in the assay on E. cloacae AR0163 is “showed the efficacy”. Further, the “efficacy, bacterial burden” value with K. pneumoniae AR0040 was “showed the efficacy”.
